From article PMC11721041 (Molecules, 2024)
“And” between values parts separate entries of the source, which are not always exact repeats. Equal entries are not always repeated. Where two headings read alike, the source gives them in different places.

Legend:
AChE = settings: cited from earlier work; for type of inhibition of AChE: native triterpenic acids
[1] = molecular target: butyrylcholinesterase (BChE); settings: cited from earlier work; for BChE activity (in words): native triterpenic acids
[2] = molecular target: T1, Acetylcholinesterase from Electrophorus electricus (electric eel) (Electrophorus electricus, UniProt O42275); experiment: In vitro AChE inhibition assay (modified Ellman's method); assay type: biochemical; settings: for IC50: IC50 against AChE enzyme, triplicate; for IC50 / AChE inhibitory activity (in words): electric eel AChE, Ellman's assay; for times more active than 3-oxo-analog: indole derivative vs its 3-oxo amide
T1 construct: purchased Sigma-Aldrich C2888
T1 sequence (O42275 24-633): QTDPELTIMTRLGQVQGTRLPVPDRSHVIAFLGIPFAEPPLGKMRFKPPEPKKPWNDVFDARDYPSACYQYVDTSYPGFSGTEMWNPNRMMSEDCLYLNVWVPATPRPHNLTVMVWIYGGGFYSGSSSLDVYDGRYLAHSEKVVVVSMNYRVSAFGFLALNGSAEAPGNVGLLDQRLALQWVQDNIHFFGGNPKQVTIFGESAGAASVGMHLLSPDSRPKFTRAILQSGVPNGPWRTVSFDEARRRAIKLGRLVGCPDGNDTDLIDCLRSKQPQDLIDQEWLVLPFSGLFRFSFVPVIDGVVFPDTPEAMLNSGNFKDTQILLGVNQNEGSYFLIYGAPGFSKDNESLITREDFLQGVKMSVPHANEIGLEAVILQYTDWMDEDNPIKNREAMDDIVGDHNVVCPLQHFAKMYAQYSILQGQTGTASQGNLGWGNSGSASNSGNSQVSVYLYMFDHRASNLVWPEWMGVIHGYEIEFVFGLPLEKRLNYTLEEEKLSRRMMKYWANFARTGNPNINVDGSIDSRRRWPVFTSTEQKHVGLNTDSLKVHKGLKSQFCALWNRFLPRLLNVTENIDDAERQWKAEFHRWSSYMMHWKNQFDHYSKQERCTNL
Description: Acetylcholinesterase from Electrophorus electricus (electric eel) (AChE, Sigma C2888), sodium phosphate buffer (PBS) 0.1 M pH 7.4, acetylthiocholine iodide (ACT, Sigma A5751), and 5,5′-dithiobis-(2-nitrobenzoic acid) (DTNB, Sigma D8130) were purchased from Sigma-Aldrich (St. Louis, MO, USA). In vitro anti-AChE activity was performed based on the modified Ellman’s method. […] The IC50 values were determined graphically from inhibition curves (log inhibitor concentration vs. percent of inhibition). All experiments were performed in triplicate. Donepezil was used as a positive control

[3] = molecular target: T2, recombinant human acetylcholinesterase (hAChE) (Homo sapiens, UniProt P22303); experiment: hAChE inhibition constants and inhibition type (Dixon and Cornish-Bowden plots); assay type: biochemical; settings: for type of AChE inhibition: Dixon and Cornish-Bowden plots
T2 construct: purchased Sigma-Aldrich
T2 sequence (P22303 32-614): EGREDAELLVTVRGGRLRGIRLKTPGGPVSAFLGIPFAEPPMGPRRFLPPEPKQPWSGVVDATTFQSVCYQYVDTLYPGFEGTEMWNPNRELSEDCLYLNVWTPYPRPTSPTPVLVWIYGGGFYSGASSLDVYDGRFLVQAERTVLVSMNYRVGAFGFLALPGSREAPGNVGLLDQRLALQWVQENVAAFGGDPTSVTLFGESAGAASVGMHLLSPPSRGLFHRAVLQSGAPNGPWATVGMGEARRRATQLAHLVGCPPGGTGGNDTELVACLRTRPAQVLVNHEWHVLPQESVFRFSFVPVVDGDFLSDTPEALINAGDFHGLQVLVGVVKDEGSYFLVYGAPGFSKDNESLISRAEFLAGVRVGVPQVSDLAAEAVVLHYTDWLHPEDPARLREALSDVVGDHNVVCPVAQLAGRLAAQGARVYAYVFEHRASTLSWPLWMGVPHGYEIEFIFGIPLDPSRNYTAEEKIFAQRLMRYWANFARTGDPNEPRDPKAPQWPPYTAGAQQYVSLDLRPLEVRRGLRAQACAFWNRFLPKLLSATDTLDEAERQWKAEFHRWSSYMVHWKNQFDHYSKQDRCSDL
Description: The inhibition constants for hAChE were determined in 0.1M sodium phosphate buffer (pH 8.0) with various ATC concentrations in the range 0.1–1 mM. The rate of hydrolysis of ATC was measured after the addition of DTNB (0.1 mM final concentration) and enzyme. The final enzyme concentration in the assays was in the picomolar range. Controls of the active enzyme with 0.05% DMSO and ATC spontaneous hydrolysis in the absence of an inhibitor were performed for each substrate concentration. The rate of substrate hydrolysis was recorded by monitoring the linear optical density change at 412 nm for 5 min. Experiments were performed in triplicate. Inhibition constants were determined from the Dixon plot and Cornish-Bowden transformation using OriginPro 8.5 software (OriginLab Corporation, Northampton, MA, USA).

[4] = molecular target: T2, recombinant human acetylcholinesterase (hAChE); experiment: In vitro inhibition of recombinant human AChE (Ellman's method), IC50; assay type: biochemical; settings: 1 mM ATC, pH 8.0, 25 °C, read-out: IC50 against hAChE enzyme
Description: Acetylthiocholine iodide (ATC), recombinant human acetylcholinesterase (hAChE), and 5,5′-dithio-bis-(2-nitrobenzoic) acid (DTNB) were purchased from Sigma-Aldrich (Sigma-Aldrich). Dimethyl sulfoxide (DMSO) was purchased from PanReac AppliChem GmbH (Darmstadt, Germany). All other chemicals were of biochemical grade. All assays were performed at 25 °C using a UV-1800 Shimadzu (Kyoto, Japan) spectrophotometer at 412 nm. The inhibitory potency of compounds against hAChE was studied using Ellman’s method. Stock solutions of compounds (0.01 M) were prepared using DMSO. The final concentration of DMSO in the cuvette was less than 0.05% vol. The inhibitory effect against AChE of 0.05% DMSO was considered weak. To determine the IC50 (the concentration of the compound producing 50% enzyme activity inhibition), enzyme-catalyzed hydrolysis was carried out in 0.1 M phosphate buffer (pH 8.0) containing hAChE in the picomolar range, DTNB (0.1 mM final concentration), and 1 mM ATC as substrate. […] Then, absorbance change was recorded for 2 min. […] The percentage of hAChE inhibition was determined by comparison of rates of reaction of test samples relative to the control sample. […] IC50 was calculated using the Hill Equation: E/Emax=I^n/IC50n+I^n where E is the enzyme activity and [I] is the compound concentration.

[5] = system: human T-lymphoblastic leukemia cancer cells; settings: cited from earlier work
[6] = parameters: method as in PMID 32090748; settings: combination with SSRIs, patients with MDD; cited from earlier work

## C=C(C)[C@@H]1CC[C@]2(C(=O)NCCN3CCCCC3)CC[C@]3(C)C(CCC4[C@@]5(C)CC[C@H](O)C(C)(C)C5CC[C@]43C)C12 (stereo partly drawn)
AChE; selective inhibition of AChE
  Ki: 1 µM

## CC(=O)O[C@H]1CC[C@@]2(C)C(CC[C@]3(C)C2CCC2C4[C@H](C(C)=O)CC[C@]4(C(=O)NCCN4CCCC4)CC[C@]23C)C1(C)C (stereo partly drawn)
[1]; read-out: Ki against BChE
  Ki: 0.07 µM

## C=C(C)[C@@H]1CC[C@]2(C(=O)NC3CN4CCC3CC4)CC[C@]3(C)C(CCC4[C@@]5(C)CCC(=O)C(C)(C)C5CC[C@]43C)C12 (mixture of isomers) [Compound 6, 3-oxo-lup-20-en-28-((±)-3-aminoquinuclidine) amide]
[2]
  IC50: 17 ± 1.04 µM
  AChE inhibitory activity (in words): weak activity

## CC1(C)CC[C@]2(C(=O)NC3CN4CCC3CC4)CC[C@]3(C)C(=CCC4[C@@]5(C)CCC(=O)C(C)(C)C5CC[C@]43C)C2C1 (mixture of isomers) [Compound 7, 3-oxo-olean-12-en-28-((±)-3-aminoquinuclidine) amide]
[2]
  IC50: 1.67 ± 0.05 µM

## C[C@@H]1CC[C@]2(C(=O)NC3CN4CCC3CC4)CC[C@]3(C)C(=CCC4[C@@]5(C)CCC(=O)C(C)(C)C5CC[C@]43C)C2[C@H]1C (mixture of isomers) [Compound 8, 3-oxo-urs-12-en-28-((±)-3-aminoquinuclidine) amide]
[2]
  IC50: 0.43 ± 0.02 µM
[2]; ratio of AChE IC50 values
  times less active than donepezil: 14.8 times
[3]
  type of AChE inhibition: mixed-type inhibitor
[3]; hAChE, ATC 0.1–1 mM, pH 8.0
  Kui (uncompetitive inhibition constant): 22.8 ± 1.5 µM
[3]; hAChE, ATC 0.1–1 mM, pH 8.0, read-out: Kci (competitive inhibition constant)
  Ki: 6.8 ± 0.4 µM
[4]
  IC50: 5.33 ± 1.6 µM

## CC1(C)C(=O)CC[C@@]2(C)C1CC[C@]1(C)C2CC=C2C3C[C@@](C)(C(=O)NC4CN5CCC4CC5)CC[C@]3(C)CC[C@]21C (mixture of isomers) [Compound 9, 3-oxo-11-dezoxo-olean-12-en-30-((±)-3-aminoquinuclidine) amide]
[2]
  IC50: 29 µM and 28.9 µM
  AChE inhibitory activity (in words): weak activity

## C=C(C)[C@@H]1CC[C@]2(C(=O)NC3CN4CCC3CC4)CC[C@]3(C)C(CCC4[C@@]5(C)Cc6c([nH]c7ccccc67)C(C)(C)C5CC[C@]43C)C12 (mixture of isomers) [Compound 10, [3,2b]Indolo-lup-20-en-28-((±)-3-aminoquinuclidine) amide]
[2]
  IC50: 4.77 ± 0.21 µM
[2]; ratio of AChE IC50 values
  times more active than 3-oxo-analog: 3.5 times

## CC1(C)CC[C@]2(C(=O)NC3CN4CCC3CC4)CC[C@]3(C)C(=CCC4[C@@]5(C)Cc6c([nH]c7ccccc67)C(C)(C)C5CC[C@]43C)C2C1 (mixture of isomers) [Compound 11, [3,2b]Indolo-olean-12-en-28-((±)-3-aminoquinuclidine) amide]
[2]
  IC50: 0.47 ± 0.03 µM
  AChE inhibitory activity (in words): weak activity
[2]; ratio of AChE IC50 values
  times more active than 3-oxo-analog: 3.5 times
[3]
  type of AChE inhibition: uncompetitive type of inhibition
[3]; listed as 2,3-indolo-oleanolic acid amide
  type of AChE inhibition: uncompetitive-type inhibitor
[3]; hAChE, ATC 0.1–1 mM, pH 8.0
  Kui (uncompetitive inhibition constant): 19.1 ± 5.1 µM
[4]
  IC50: 8.89 ± 0.4 µM

## C[C@@H]1CC[C@]2(C(=O)NC3CN4CCC3CC4)CC[C@]3(C)C(=CCC4[C@@]5(C)Cc6c([nH]c7ccccc67)C(C)(C)C5CC[C@]43C)C2[C@H]1C (mixture of isomers) [Compound 12, [3,2b]Indolo-urs-12-en-28-((±)-3-aminoquinuclidine) amide]
[2]
  IC50: 18 ± 1.39 µM
  AChE inhibitory activity (in words): weak activity

## CC1(C)c2[nH]c3ccccc3c2C[C@@]2(C)C1CC[C@]1(C)C2CC=C2C3C[C@@](C)(C(=O)NC4CN5CCC4CC5)CC[C@]3(C)CC[C@]21C (mixture of isomers) [Compound 13, [3,2b]Indolo-11-dezoxo-olean-12-en-30-((±)-3-aminoquinuclidine) amide]
[2]
  IC50: > 128 µM
  AChE inhibitory activity (in words): weak activity

## CC1(C)CC[C@]2(C(=O)O)CC[C@]3(C)C(=CC[C@@H]4[C@@]5(C)CC[C@H](O)C(C)(C)[C@@H]5CC[C@]43C)[C@@H]2C1 [OA, oleanolic acid]
[1]
  BChE activity (in words): inactivity
AChE
  type of inhibition of AChE: competitive

## C[C@H]1[C@H](C)CC[C@]2(C(=O)O)CC[C@]3(C)C(=CC[C@@H]4[C@@]5(C)CC[C@H](O)C(C)(C)[C@@H]5CC[C@]43C)[C@H]12 [UA, ursolic acid]
[1]
  BChE activity (in words): inactivity
AChE
  type of inhibition of AChE: mixed

## C[C@@H]1CC[C@@]2(OC1)O[C@H]1C[C@H]3[C@@H]4CC=C5C[C@@H](O)CC[C@]5(C)[C@H]4CC[C@]3(C)[C@H]1[C@@H]2C [diosgenin]
[5]
  cytotoxicity (in words): does not exhibit cytotoxicity

## CC1(C)[C@@H](O[C@H]2O[C@H](C(=O)O)[C@@H](O)[C@H](O)[C@H]2O[C@@H]2O[C@H](C(=O)O)[C@@H](O)[C@H](O)[C@H]2O)CC[C@]2(C)[C@H]3C(=O)C=C4[C@@H]5C[C@@](C)(C(=O)O)CC[C@]5(C)CC[C@@]4(C)[C@]3(C)CC[C@@H]12 [glycyrrhizic acid, Glycyrrhizic acid]
[6]
  clinical effect of adjunctive therapy (in words): impressively greater symptomatic improvement, better treatment response, and a faster onset of clinical effects

## N-benzyl-3-benzamidoquinuclidine
[1]; read-out: Ki, butyrylcholinesterase inhibitory activity
  Ki: 3.7 µM
